Experimental data published in patent publication US20120088694A1, “CELL ASSAY METHODS AND ARTICLES” (NanoInk, Inc., priority 2010, published 2012).

Tested on: NIH 3T3 fibroblasts
Assay: Fibroblast spreading and migration on fibronectin patterns with PEG hydrogel delivering compound
Type: cell-based
Description: An exemplary method is described here for patterning cells onto surfaces using direct deposition of extracellular matrix (ECM) proteins and for delivering multiple compounds to individual cells. First, actin polymerization and stress fiber formation was followed over a 2 hour time period. Second, multiple ECM proteins were patterned on the same substrate and side-by-side analysis of single cells was done to characterize differential responses. Finally, polyethylene glycol with or without Cytochalasin-D (250 μM or 500 μM) was delivered to individual cells. A method was established for single cell analysis with multiple compounds on the same substrate. The NLP 2000 (NanoInk, Inc., Skokie, Ill.) fabrication system was used for patterning of ECM proteins and hydrogel composites. After approximately 4 hours, substrates were rinsed and non-specific cell binding is blocked with a solution of bovine serum albumin. NIH 3T3 fibroblasts (ATCC) were added at high density for 30 minutes, at which point non-adherent cells are washed and removed. Complete media was then added for between 0.5 and 3.5 hours before paraformaldehyde fixation, staining and analysis. Cells attach to approximately 75% of the patterns deposited onto glass surfaces. Cell morphology was controlled and actin polymerization was more developed with more elongated stress fibers at 2 hours versus earlier time points. […] Combinatorial experimentation is increasingly important with regard to the cellular microenvironment.
A mixture of PEG-DMA, 4-arm PEG thiol, and Cytochalasin D, a compound of interest, is patterned onto an epoxy-coated glass slide. After curing with UV, fibronectin, an ECM protein, was patterned onto the glass slide around the cured hydrogel. In a control hydrogel pattern, only PEG-DMA and 4-arm PEG thiol, but not any compound of interest, were used for fabricating the hydrogel.
Subsequently, 3T3 fibroblasts were plated onto the glass slide with PEG and fibronectin as described above. […] FIGS. 11 and 12 show the time course following spreading and migration of fibroblasts over a period of 4 hours.

[1] = cells cultured for 2 hours, Cytochalasin D in the PEG hydrogel vs control hydrogel, 15 patterns per group

For `C=C1[C@@H](C)[C@H]2[C@H](Cc3ccccc3)NC(=O)[C@]23[C@H](OC(C)=O)/C=C/[C@@](C)(O)C(=O)[C@@H](C)C/C=C/[C@H]3[C@@H]1O` [Cytochalasin D], the “migration of fibroblasts from the fibronectin patterned area” value (250 and 500 μM in PEG hydrogel, time course over 4 hours, vs PEG without CytoD) was “prevented migration of fibroblasts from the fibronectin patterned area”, the “cell spreading and migration” value (Cytochalasin-D (250 μM or 500 μM) delivered in PEG hydrogel to individual cells) was “decline in cell spreading and migration” and the “number of cells on patterns (images, average fluorescence intensity)” value [1] was “significantly fewer cells”. For the same compound, the “spreading and/or migration away from the patterns” value [1] was “less spreading and/or migration away from the patterns”.
